Consider `C=C(Nc1nc(-c2ccccc2)c(-c2nc3ccccc3c(=O)n2-c2ccc(C(C)=O)cc2)s1)c1ccco1`, for which the melting point fell in the range of 232 to 233 °C.

In turn, `Cc1csc2nc3ccccc3c(=O)n12` came in with a melting point of 180 °C.

As to `CCOC(=O)c1ncn2c1CN=C(c1ccccc1F)c1cc([N+](=O)[O-])ccc1-2`, the melting point fell in the range of 228 to 231 °C.

Take `CCNC(C)CN1CCc2c(c(=O)oc3c(OC)c(OC)ccc23)C1` (stereo not given): the melting point fell in the range of 125 to 127 °C.

Regarding `O=C(O)C(=O)c1ccc(OCCCc2ccc(F)cc2)cc1`, the melting point was 77 to 78 °C.

The molecule `Cn1c(C(F)(F)F)cc(=O)n(-c2cc(OCc3ccccc3Cl)c(Cl)cc2F)c1=O` registered a melting point of 126 to 129 °C.

With `Cn1nnnc1NCCSCc1csc(NC(=N)N)n1`, the melting point was in the range of 80 to 83 °C.

Consider `CCNC(=O)c1cc(NC(=O)c2ccccc2)ccc1[Si](C)(C)C`, for which the melting point was in the range of 185 to 187 °C.

As to `Cc1c(N2C[C@H](CF)[C@](C)(N)C2)c(F)cc2c(=O)c(C(=O)O)cn([C@@H]3C[C@@H]3F)c12`, the melting point is 135 to 137 °C.

`Fc1cc(C(c2cccc(Cl)c2)n2cncn2)c2ccccc2n1` (stereo not given) gave a melting point of 140 °C.

Consider `O=c1[nH]c(=O)n(CCCCBr)c2ccccc12`, for which the melting point lay in the range of 152 to 153 °C.

`CC12CCC3c4cccc([N+](=O)[O-])c4CCC3C1CCC2O` (stereo not given) returned a melting point of 151 to 152 °C.

The molecule `O=C(O)C(=O)c1ccc(OCCOCCOc2ccccc2)cc1` came in with a melting point of 58 to 59 °C.

On to `O=C(c1ccc(C2CCCCC2)cc1)c1ccccn1`, for which the melting point is 44 to 45 °C.

`COc1cc(C(CCl)(OC)OC)ccc1OS(=O)(=O)c1ccccc1` returned a melting point of 130 °C.

Molecule `COc1ccc(C(=O)NCCCC(=O)O)cc1OCc1ccccc1` showed a melting point of 156 to 158 °C.

Take `CN(C)c1ccc(C2CC3(C)C(O)CCC3C3CCC4=CC(=O)CCC4=C23)cc1` (stereo not given): the melting point is 166 to 167 °C.

As to `CCCCCCCCc1c(N)nc(S(C)(=O)=O)nc1CC`, the melting point was 90 to 92 °C.

In turn, `CN(CCOc1ccc(C(N)=O)cc1)CCc1ccc([N+](=O)[O-])cc1` showed a melting point of 116 to 118 °C.

As for `COc1ccc(-c2nc3ccc(OC(F)(F)F)cc3[nH]2)cc1`, the melting point was 200 to 202 °C.

Molecule `CCCN(C(N)=S)C(c1ccncc1)C1CC1` (stereo not given) returned a melting point of 171 °C.

Take `COc1cc(CNc2cc(Cl)c(N=CN(C)C)c(Cl)c2)cc(OC)c1`: the melting point fell in the range of 124 to 125 °C.

Consider `Nc1c(-c2csc(-c3ccncc3)n2)c(=O)[nH]c2ccccc12`, for which the melting point is greater than 250 °C.

With `NC(c1ccnc(F)c1)C(O)c1cccc(C(F)(F)F)c1` (stereo not given), the melting point was in the range of 128 to 129 °C.

Molecule `Fc1ccc(/C=C/c2nc(COc3cccc(CCCn4ccnn4)c3)co2)cc1` returned a melting point of 105 to 106 °C.

`CC(=O)OC1CSC(Oc2cnc(-c3ccccc3)c(F)c2)C(OC(C)=O)C1OC(C)=O` (stereo not given) came in with a melting point of 160 to 162 °C.

Turning to `O=C(O)C1(c2ccc(Nc3nc(N4CCC(O)CC4)nc4c3CCC4)cc2)CCC1`, the melting point is 165 to 167 °C.

`CC1(Cc2ccccc2)Cc2cc(OCC(=O)O)c(Cl)c(Cl)c2C1=O` (stereo not given) came in with a melting point of 167 to 168 °C.

`CCOC(=O)C(C#N)=CC=Cc1ccc(C(C)(C)C)cc1` came in with a melting point of 65 to 70 °C.

As to `O=C1N(N2CCOCC2)c2ccccc2C1(Cc1ccnc(F)c1)Cc1ccnc(F)c1`, the melting point was 198 to 203 °C.

In the case of `Cn1ncc(NCCN2CCN(c3cccc4c3OCCO4)CC2)cc1=O`, the melting point fell in the range of 188 to 190 °C.

For `COC(=O)c1ccc(-c2nc(-c3cccc(Cl)c3)cs2)cc1`, the melting point lay in the range of 150 to 151 °C.

For `COc1cc(C(C)(C)CNC(=O)c2ccccc2)cc2c1OC(C)(C)C2`, the melting point fell in the range of 109 to 110 °C.

`CCOC(=O)Cc1cc(-c2ccccc2)nc2ccccc12` came in with a melting point of 180 °C.

In the case of `Cc1cc(NC(=O)C(C)(O)COc2cccc(F)c2)ccc1[N+](=O)[O-]` (stereo not given), the melting point lay within 83 to 86 °C.

(Values after a melting point compilation (Tetko et al.; mined from patent text by program, amines drawn as free bases though some values may be those of a salt).)
